The source of these data is a melting point compilation (Tetko et al.; mined from patent text by program, amines drawn as free bases though some values may be those of a salt).

Residues, ends and D or L forms follow the SMILES beside them. *: point of attachment. Tos = Cc1ccc(S(=O)(=O)*)cc1; Cam = NC(=O)C*

The term melting point denotes the temperature of the solid-liquid transition. The compound `Nc1nccc(Oc2ccc3c(c2)CCCN3)n1` returned a melting point of 180 to 182 °C.
The compound `COc1cccc2c(=O)c3c(Cl)ccc([N+](=O)[O-])c3[nH]c12` displayed a melting point of 315 to 320 °C.
The same measure for `CCOC=Nc1c2oc3ccccc3c2nn1C`: 120 to 122 °C; for `CCOc1csc(C2OC(=O)NC2=O)c1` (stereo not drawn): 144 to 146 °C.
For the compound `CN1C(=O)CCC2=C1Cc1cc(C(=O)c3ccc(Cl)c(S(N)(=O)=O)c3)ccc12`, the melting point fell in the range of 259 to 260 °C.
`Cc1oc(-c2ccccc2)nc1CCOc1ccc(C=O)cn1` had a melting point of 99 to 100 °C.
Compound `COc1ccc(-c2c(-c3ccncc3)sc3nc(=O)cc(N)n23)cc1` came in with a melting point of 267 to 271 °C.
For the compound `CC(C)(Oc1ccc(Cl)cc1)c1ccnc2ncnn12`, the melting point lay in the range of 132 to 135 °C.
With `CN1CCN(c2cc3c(c(N)c2F)c(=O)c(C(=O)O)cn3C2CC2)CC1`, the melting point fell in the range of 216 to 218 °C.
Consider `COc1cc(-c2ccco2)c2oc(-c3ccc(OC)c(F)c3)nc2c1`, for which the melting point amounted to 155 °C.
The same measure for `Cc1ccccc1N1CCN(S(=O)(=O)c2ccc([N+](=O)[O-])cc2)CC1`: 176 to 178 °C; for `CC(C(=O)O)c1cccc2c1Oc1ccccc1CC2=O` (stereo not drawn): 159 to 160 °C.
`CCCCOc1c(CNC(=O)OC(C)(C)C)n(CC(C)C)c(=O)c2ccc(-c3nc(C(=O)O)cs3)cc12` showed a melting point of 195 to 196 °C.
The same measure for `COc1cc2c(=O)n(CCCN3CCOCC3)c3c4ccccc4[nH]c(=O)c3c2cc1OC`: 250 to 252 °C; for `CS(=O)(=O)Nc1cc2occ(Br)c(=O)c2cc1Oc1ccccc1`: 215 to 216 °C.
For the compound `N#Cc1cccc2c1NC(=O)C2c1ncnc2c1cnn2C1CCCC1` (stereo not drawn), the melting point was 327 to 332 °C.
The same measure for `Cc1ccc(N2C(=O)C(O)=C(C(=O)c3ccc(C(F)(F)F)nc3)C2c2ccc(OC(F)(F)F)cc2)nn1` (stereo not drawn): 172 °C; for `COC(=O)C=C(CC(=O)OC)NCc1ccccc1`: 67 to 69 °C.
Compound `COc1ccc2cc(C(=O)O)ccc2n1` showed a melting point of 220 to 222 °C.
The same measure for `CCOC(=O)c1ccc(COCc2csc3nc(C(=O)NCc4cccc(N(C)C(=O)C(F)(F)F)c4)[nH]c(=O)c23)cc1`: 208 to 209 °C.
`CC(C)n1cc(-c2ccc(Oc3ccccc3)c(CO)c2)c2c(N)ncnc21`: the melting point is 92 to 94 °C.
`COc1ccc(OC(C)=O)c2ccccc12` displayed a melting point of 51 to 53 °C.
The same measure for `COC(=O)Cc1ccc(OCCNC(=O)C2Cc3ccccc3N2S(=O)(=O)c2ccc(-c3ccc(F)cc3F)cc2)cc1` (stereo not drawn): 60 to 64 °C; for `CN1CCN(c2cc(Cl)cc3c2c(=O)n(CCc2ccccc2)c(=O)n3Cc2ccccc2)CC1`: 136 to 138 °C.
Under `Cc1ccc(S(=O)(=O)N2CCC[C@H]2C(=O)N[C@@H](Cc2ccc(OCC(N)=O)cc2)C(=O)O)cc1` (Tos-Pro-Tyr(Cam)-OH) stands 195 to 196 °C.
As to `O=C1CN=C(c2cccc(Cl)c2)c2cc(C(=O)c3ccc(Cl)cc3)ccc2N1`, the melting point stood at 265 °C.
Compound `CC(=O)O[C@@H]1[C@H](OC(C)=O)[C@@H](C)O[C@H]1n1c(Br)nc2c(Br)c(Cl)c(Cl)cc21` yielded a melting point of 152 to 154 °C.
Regarding `COCCOCCN1C(=O)C2(COc3cc4c(cc32)OCCO4)c2ccccc21` (stereo not drawn), the melting point was 90 to 91 °C.
`CCOC(=O)COc1cc2cc(C(C)O)sc2c(Cl)c1Cl` (stereo not drawn) had a melting point of 101 to 103 °C.
`O=C(Nc1ccc(Cc2nnn[nH]2)cc1)C(F)(F)C(F)(F)C(F)(F)C(F)(F)F` showed a melting point of 173 to 174 °C.
The same measure for `Cn1cc(-c2ncc(-c3ccc4cc(OCC(=O)O)ccc4c3)o2)c2ccccc21`: 269 to 272 °C; for `CN(C)c1ccc(/C=C/c2c(Cl)cccc2Cl)cc1`: 96 to 97 °C; for `C#CCN1CCN(C2Cc3ccc(OC)cc3Sc3ccc(Cl)cc32)CC1` (stereo not drawn): 177 to 180 °C.
`COc1cc2c(c(OC)c1OC)CN(CCc1ccc([N+](=O)[O-])cc1)CC2`: the melting point came out at 110 °C.
The compound `COc1cccc2c(CC(=O)OCC(=O)CCc3ccccc3)coc12` yielded a melting point of 68 to 69 °C.
On to `CC(=O)Nc1ccc(-c2ccc3c(c2)CC(C(=O)O)O3)cc1` (stereo not drawn), for which the melting point is 274 to 276 °C.
The compound `CCOC(=O)COc1ccc(C2C(C(=O)OCC)=C(C)N(C)C(C)=C2C(=O)OCC)cc1OC` came in with a melting point of 84 to 85 °C.
As to `CC1(O)NC(=O)OC12CCN(Cc1ccccc1)CC2` (stereo not drawn), the melting point was in the range of 162 to 164 °C.
`Cc1ccc(N2CCN(Cc3ccc4ccc(=O)oc4c3)CC2)cc1` had a melting point of 154 to 155 °C.
The same measure for `Cc1ccc(C(=O)N(C)C)cc1-c1nc(N(C)CCCN(C)C)nc2c1CNC(=O)N2c1c(F)cccc1F`: 114 to 118 °C; for `O=C1C(Cc2ccncc2)c2ccccc2N1N1CCCCC1` (stereo not drawn): 83 to 86 °C.
The compound `COc1cc(C(=O)c2cccnc2)ccc1OCc1ccccc1` gave a melting point of 76 °C.
In the case of `COc1ccc(C(=O)c2cccc3c2CCC3C(N)=O)cc1` (stereo not drawn), the melting point was in the range of 164 to 166 °C.
As for `Cn1c(CBr)c(C(=O)c2ccccc2)c(=O)n(C)c1=O`, the melting point lay in the range of 164 to 167 °C.
In turn, `CCCCCCCCN(CCCCCCCC)C(=O)c1cc(C(C)(C)C)c(OC(=O)c2cc(C(C)(C)C)c(O)c(C(C)(C)C)c2)c(C(C)(C)C)c1` registered a melting point of 145 to 146 °C.
As to `CCCCCCc1cc2c(cc1OCCCC(=O)O)C(=O)CCC2`, the melting point came out at 81 °C.
Turning to `CN1Cc2ccc(Cl)c3scc(c23)S1(=O)=O`, the melting point was 146 °C.
As for `O=C1C=C(NCc2ccccc2I)CCN1`, the melting point fell in the range of 163 to 164 °C.
Under `CC(C)c1ccc(N(Cc2ccc(N(C)C)nc2)C(=O)C2CCCc3c(O)cccc32)cc1` (stereo not drawn) stands 187 °C.
The compound `Cc1nc(N2CCc3ccccc3CC2)c(C#N)c(=O)n1CC=C(F)F` came in with a melting point of 158 to 159 °C.
The same measure for `CCCc1cc(=O)[nH]c2c3c(cc(O)c12)OC(C)C(C)C3=O` (stereo not drawn): 295 to 296 °C; for `O=C(O)CCCc1cc2nc(Cl)ccc2n1S(=O)(=O)c1ccc(N2CCCC2)cc1`: 88 °C.
Under `O=C1CCCc2c(F)cc(F)cc21` stands 89 to 91 °C; under `COC(=O)CC[C@H](NC(=O)c1ccc(I)cc1F)C(=O)OC`, 94 to 96 °C; under `COc1ccc([C@H](C)NC(=O)COc2cc(C(F)(F)F)c3c(-c4ccccc4)nn(C)c3n2)cc1`, 172 to 174 °C.
Compound `COc1cc2oc(=O)c(CCN3CCN(c4ccccc4)CC3)c(C)c2c(OC)c1OC` came in with a melting point of 136 to 137 °C.
The same measure for `CN1CCN(c2ccc(-c3cnc4[nH]cc(C(=O)C5(C)CCCCC5)c4n3)cc2)CC1`: 225 to 226 °C.
Under `CSc1sc(C(N)=O)c2c1-c1nn(C)cc1CC2` stands 285 to 286 °C; under `CCCCCCCCc1ccc(C=CCO)cc1`, 30 °C.
`C=CCc1cc2c(c(CC=C)c1O)CCC(=O)N2CCCNC(=O)CCl` yielded a melting point of 152 to 154 °C.
`CCOC(=O)CCC1(NC(=O)c2ccc(Cl)c(Cl)c2)C(=O)N(CCCc2ccccc2)c2ccccc21` (stereo not drawn) yielded a melting point of 120 to 122 °C.
On to `Cc1c(NC(=O)c2ccc(-c3ccc(F)cc3)cc2)ccc2cc(C(c3ccccc3)N3CCCC3)cnc12` (stereo not drawn), for which the melting point lay within 192 to 195 °C.
In the case of `CON=Cc1cc(N2C(=O)C3=C(CCCC3)C2=O)c(Cl)cc1Cl`, the melting point was in the range of 122 to 124 °C.
Under `O=C1c2sccc2-n2cnc(Cl)c2[C@@H]2CCCN12` stands 180 to 183 °C; under `COc1ccc2c(c1)C(=O)N(c1ccc3c(ccn3C)c1)C2`, 193 to 197 °C; under `Cc1sc2nc3ccc(C(=O)O)cn3c(=O)c2c1C`, 364 to 368 °C.
The same measure for `COc1ccc(NCCCOc2ccc3ccc(OCCCNc4ccc(OC)cc4)cc3c2)cc1`: 127 °C; for `COc1ccc2c(c1)N(Cc1ccccc1)C(=O)C1CCCC1=N2` (stereo not drawn): 105 to 107 °C; for `O=C(O)CN(CC(=O)O)CC(CO)C(=O)O` (stereo not drawn): 195 °C.
On to `O=C(O)CNC(=O)CCCCc1ccccc1`, for which the melting point is 93 to 96 °C.
Compound `Cc1cc(C)cc(C(Cl)=NNc2ccccc2)c1` registered a melting point of 47.5 to 48.5 °C.
In the case of `Oc1cc(C(F)(F)F)nn1C1CCCCO1` (stereo not drawn), the melting point lay in the range of 129 to 130 °C.
The same measure for `COC(=O)c1cn2c(n1)COc1ccc(NC(C)=O)cc1-2`: 216 to 219 °C; for `CCCCNc1cccnc1S(=O)(=O)NC(=O)Nc1nc(OC)cc(OC)n1`: 118 to 119 °C; for `O=C1CC(C(F)(F)F)CC(=O)N1c1cc(OCSc2ccccc2)c(Cl)cc1F`: 108 to 110 °C.
In the case of `C=CCOc1ccc2c(c1)CCC(=O)N2`, the melting point fell in the range of 123 to 125 °C.
`C#Cc1c(C(C)C)cc(-c2ccccc2)nc1-c1ccc(F)cc1` showed a melting point of 121 to 124 °C.
Consider `Cc1ccc([C@H]2O[C@@H]2C(N)=O)cc1`, for which the melting point was 183 to 185 °C.
`CCOC(=O)C=Cc1ccc(O)cc1` displayed a melting point of 70 to 71 °C.
As to `O=[N+]([O-])c1c(NCCO)cc(C(O)CSCC(O)c2cc(NCCO)c([N+](=O)[O-])c(NCCO)c2)cc1NCCO` (stereo not drawn), the melting point was 157 °C.
On to `COC1(c2cc(F)cc(Sc3ccc4c(c3)C=CC4=NO)c2)CCOCC1`, for which the melting point lay in the range of 124 to 136 °C.
In the case of `O=C(NCCO)/C(=C/c1ccc(C2CC2)cc1)NC(=O)c1ccc(OCCc2ccc3c(c2)OCO3)cc1`, the melting point was 113 to 115 °C.
`N[C@H](C1CCCCC1)C(O)(c1ccc2ccccc2c1)c1ccc2ccccc2c1` gave a melting point of 205 to 206 °C.
`Nc1ccc2c(c1)C(=O)c1cc(N)ccc1C2=O`: the melting point was in the range of 337 to 338 °C.
`CS(=O)c1ccc(-n2cnc3ccc(-c4nnc(CCc5cccc(C(F)(F)F)c5)o4)cc32)cc1` (stereo not drawn) had a melting point of 169 to 170 °C.
On to `OCC1OC(c2c(Cl)nc3cc(Cl)c(Cl)cn23)C(O)C1O` (stereo not drawn), for which the melting point fell in the range of 239 to 240 °C.
The same measure for `O=C1c2cccc(O)c2C(=O)c2c(NCCCCO)ccc(O)c21`: 168 °C.
On to `CC(O)c1ccc(-c2ccc(C(F)(F)F)cc2)cc1` (stereo not drawn), for which the melting point lay in the range of 116 to 117 °C.
